In ChEMBL document CHEMBL3734741, “Pyrazole clubbed triazolo[1,5-a]pyrimidine hybrids as an anti-tubercular agents: Synthesis, in vitro screening and molecular docking study” (Bioorg Med Chem, 2015):
In brackets after ≈: the same amount, converted by molar mass.

Key:
[1] = system: Mycobacterium tuberculosis; assay: Antituberculosis activity against Mycobacterium tuberculosis H37Rv MTCC 300 at 6.25 ug/ml after 4 weeks by Lowenstein-Jensen medium method; assay type: functional; settings: H37Rv MTCC 300, 672 h
[2] = system: Mycobacterium tuberculosis; assay: Antituberculosis activity against Mycobacterium tuberculosis H37Rv MTCC 300 after 4 weeks by Lowenstein-Jensen medium method; assay type: functional; settings: H37Rv MTCC 300, 672 h
[3] = Inhibition of Mycobacterium tuberculosis InhA assessed as conversion of crotonoyl-CoA to butyryl-CoA by spectrophotometric method
[4] = Cytotoxicity against African green monkey Vero cells after 72 hrs by MTT assay; assay type: cell-based; settings: chlorocebus sabaeus
[5] = Selectivity index, ratio of CC50 for African green monkey Vero cells to IC50 Mycobacterium tuberculosis InhA; assay type: functional

| Compound | inhibition at 6.25 µg/mL [1] [%] | other results |
| --- | --- | --- |
| CC1=C(C(=O)Nc2ccc(C)cn2)C(c2cn(-c3ccccc3)nc2-c2ccccc2)n2ncnc2N1 (stereo not given) | 66 | – |
| CC(C)C1=C(C(=O)Nc2ccc(Br)cn2)C(c2cn(-c3ccccc3)nc2-c2ccc(Cl)cc2)n2ncnc2N1 (stereo not given) | 84 | – |
| CC(C)C1=C(C(=O)Nc2ccccn2)C(c2cn(-c3ccccc3)nc2-c2ccc([N+](=O)[O-])cc2)n2ncnc2N1 (stereo not given) | 74 | – |
| Cc1ccc(NC(=O)C2=C(C(C)C)Nc3ncnn3C2c2cn(-c3ccccc3)nc2-c2ccc(Cl)cc2)nc1 (stereo not given) | 76 | – |
| CC1=C(C(=O)Nc2ccc(Br)cn2)C(c2cn(-c3ccccc3)nc2-c2ccccc2)n2ncnc2N1 (stereo not given) | 95 | MIC [2]: 3.13 µg/mL (≈ 5.66 µM); IC50 [3]: 0.85 µg/mL (≈ 1.54 µM); CC50 at 72 h [4]: 25 µg/mL (≈ 45.2 µM); Ratio CC50/IC50 [5]: 29.41 |
| Cc1ccc(-c2nn(-c3ccccc3)cc2C2C(C(=O)Nc3ccc(Br)cn3)=C(C(C)C)Nc3ncnn32)cc1 (stereo not given) | 66 | – |
| CC1=C(C(=O)Nc2ccc(Br)cn2)C(c2cn(-c3ccccc3)nc2-c2ccc(C)cc2)n2ncnc2N1 (stereo not given) | 64 | – |
| Cc1ccc(NC(=O)C2=C(C(C)C)Nc3ncnn3C2c2cn(-c3ccccc3)nc2-c2ccccc2)nc1 (stereo not given) | 42 | – |
| CC1=C(C(=O)Nc2ccc(C)cn2)C(c2cn(-c3ccccc3)nc2-c2ccc(Cl)cc2)n2ncnc2N1 (stereo not given) | 79 | – |
| CC(C)C1=C(C(=O)Nc2ccccn2)C(c2cn(-c3ccccc3)nc2-c2ccc(F)cc2)n2ncnc2N1 (stereo not given) | 84 | – |
| CC(C)C1=C(C(=O)Nc2ccccn2)C(c2cn(-c3ccccc3)nc2-c2ccccc2)n2ncnc2N1 (stereo not given) | 45 | – |
| CC1=C(C(=O)Nc2ccc(C)cn2)C(c2cn(-c3ccccc3)nc2-c2ccc(C)cc2)n2ncnc2N1 (stereo not given) | 49 | – |
| CC1=C(C(=O)Nc2ccccn2)C(c2cn(-c3ccccc3)nc2-c2ccc(C)cc2)n2ncnc2N1 (stereo not given) | 56 | – |
| CC1=C(C(=O)Nc2ccccn2)C(c2cn(-c3ccccc3)nc2-c2ccc([N+](=O)[O-])cc2)n2ncnc2N1 (stereo not given) | 84 | – |
| CC1=C(C(=O)Nc2ccccn2)C(c2cn(-c3ccccc3)nc2-c2ccccc2)n2ncnc2N1 (stereo not given) | 72 | – |
| CC1=C(C(=O)Nc2ccccn2)C(c2cn(-c3ccccc3)nc2-c2ccc(F)cc2)n2ncnc2N1 (stereo not given) | 99 | MIC [2]: 0.78 µg/mL (≈ 1.58 µM); IC50 [3]: 0.16 µg/mL (≈ 0.325 µM); CC50 at 72 h [4]: 20 µg/mL (≈ 40.6 µM); Ratio CC50/IC50 [5]: 125 |
| CC1=C(C(=O)Nc2ccc(Br)cn2)C(c2cn(-c3ccccc3)nc2-c2ccc(Cl)cc2)n2ncnc2N1 (stereo not given) | 98 | MIC [2]: 0.78 µg/mL (≈ 1.33 µM); IC50 [3]: 0.11 µg/mL (≈ 0.187 µM); CC50 at 72 h [4]: 20 µg/mL (≈ 34 µM); Ratio CC50/IC50 [5]: 181.81 |

| Compound | inhibition at 6.25 µg/mL [1] [%] | other results |
| --- | --- | --- |
| CC(C)C1=C(C(=O)Nc2ccc(Br)cn2)C(c2cn(-c3ccccc3)nc2-c2ccc(F)cc2)n2ncnc2N1 (stereo not given) | 88 | – |
| CC1=C(C(=O)Nc2ccc(C)cn2)C(c2cn(-c3ccccc3)nc2-c2ccc([N+](=O)[O-])cc2)n2ncnc2N1 (stereo not given) | 68 | – |
| CC1=C(C(=O)Nc2ccc(Br)cn2)C(c2cn(-c3ccccc3)nc2-c2ccc(F)cc2)n2ncnc2N1 (stereo not given) | 99 | MIC [2]: 0.39 µg/mL (≈ 0.683 µM); IC50 [3]: 0.11 µg/mL (≈ 0.193 µM); CC50 at 72 h [4]: 20 µg/mL (≈ 35 µM); Ratio CC50/IC50 [5]: 181.81 |
| Cc1ccc(-c2nn(-c3ccccc3)cc2C2C(C(=O)Nc3ccc(C)cn3)=C(C(C)C)Nc3ncnn32)cc1 (stereo not given) | 46 | – |
| Cc1ccc(-c2nn(-c3ccccc3)cc2C2C(C(=O)Nc3ccccn3)=C(C(C)C)Nc3ncnn32)cc1 (stereo not given) | 55 | – |
| CO[C@H]1/C=C/O[C@@]2(C)Oc3c(C)c(O)c4c(O)c(c(/C=N/N5CCN(C)CC5)c(O)c4c3C2=O)NC(=O)/C(C)=C\C=C\[C@H](C)[C@H](O)[C@@H](C)[C@@H](O)[C@@H](C)[C@H](OC(C)=O)[C@@H]1C [RIFAMPIN] | 99 | MIC [2]: 0.5 µg/mL (≈ 0.608 µM) |
| CC[C@@H](CO)NCCN[C@@H](CC)CO [ETHAMBUTOL] | 99 | MIC [2]: 3.12 µg/mL (≈ 15.3 µM) |
| NNC(=O)c1ccncc1 [ISONIAZID] | – | MIC [2]: 0.3 µg/mL (≈ 2.19 µM) |
| CC(C)C1=C(C(=O)Nc2ccc(Br)cn2)C(c2cn(-c3ccccc3)nc2-c2ccc([N+](=O)[O-])cc2)n2ncnc2N1 (stereo not given) | 78 | – |
| Cc1ccc(NC(=O)C2=C(C(C)C)Nc3ncnn3C2c2cn(-c3ccccc3)nc2-c2ccc([N+](=O)[O-])cc2)nc1 (stereo not given) | 68 | – |
| CC1=C(C(=O)Nc2ccc(C)cn2)C(c2cn(-c3ccccc3)nc2-c2ccc(F)cc2)n2ncnc2N1 (stereo not given) | 86 | – |
| Cc1ccc(NC(=O)C2=C(C(C)C)Nc3ncnn3C2c2cn(-c3ccccc3)nc2-c2ccc(F)cc2)nc1 (stereo not given) | 82 | – |
| CC(C)C1=C(C(=O)Nc2ccccn2)C(c2cn(-c3ccccc3)nc2-c2ccc(Cl)cc2)n2ncnc2N1 (stereo not given) | 81 | – |
| CC(C)C1=C(C(=O)Nc2ccc(Br)cn2)C(c2cn(-c3ccccc3)nc2-c2ccccc2)n2ncnc2N1 (stereo not given) | 54 | – |
| CC1=C(C(=O)Nc2ccccn2)C(c2cn(-c3ccccc3)nc2-c2ccc(Cl)cc2)n2ncnc2N1 (stereo not given) | 84 | – |
| CC1=C(C(=O)Nc2ccc(Br)cn2)C(c2cn(-c3ccccc3)nc2-c2ccc([N+](=O)[O-])cc2)n2ncnc2N1 (stereo not given) | 96 | MIC [2]: 1.56 µg/mL (≈ 2.61 µM); IC50 [3]: 0.28 µg/mL (≈ 0.468 µM); CC50 at 72 h [4]: 25 µg/mL (≈ 41.8 µM); Ratio CC50/IC50 [5]: 89.28 |
